Here are results for 11 compounds from US20240343694A1, “PYRIMIDINE DERIVATIVE, METHOD FOR PREPARING SAME, AND PHARMACEUTICAL COMPOSITION FOR PREVENTING OR TREATING CANCER COMPRISING SAME AS ACTIVE INGREDIENT” (KOREA RESERARCH INSTITUTE OF CHEMICAL TECHNOLOGY, priority 2021, published 2024).

As a reminder, the IC50 is the midpoint of a concentration-inhibition curve.

Assay [1] deals with Ba/F3 EGFR D770_N771insSVD. As to the kind of experiment: Growth inhibition of Ba/F3 EGFR mutant cells (CellTiter-Glo). The conditions noted are these: Ba/F3 EGFR-D770-N771ins_SVD, 72 hours. It is filed as cell-based. An outline of the steps: (§1)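 Ba/F3 cells expressing either EGFR insertion mutant were seeded at 1,000 cells/well and dosed 24 h later at eight concentrations from 0 to 10 μM. After 72 h, viability was read by CellTiter-Glo ATP signal. IC50 (μM) was fitted from the eight-point curves.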

Assay [2] concerns Ba/F3 EGFR V769_D770insASV. Described as above. The note with it: 72 hours. It is filed as cell-based. The gist of the method:
as §1

The next assay has as its target EGFR del19 (Homo sapiens (Human), UniProt P00533, DEL746-750). As to the kind of experiment: HTRF inhibitory activity against EGFR mutant enzyme (EGFR del19). It is filed as biochemical. The note with it: recombinant enzyme, 37° C. for 2 hours. The gist of the method: (§2)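 Recombinant EGFR del19 or A763_Y764insFHEA was premixed with compound in 50 mM Tris pH 7.5 with 7.5 mM MgCl2 and 1 mM DTT. ATP (50 mM as printed) and biotin-peptide (0.5 mM) were added and reacted 2 h at 37 °C. The HTRF 665/615 read used streptavidin-XL665 and Eu anti-phosphotyrosine. IC50 was fitted from 7 concentrations.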
On the technique in general: TR-FRET usually uses a lanthanide donor and a delayed reading to cut background.

A further assay relates to Ba/F3 HER2 G776delinsVC. As to the kind of experiment: Growth inhibition of Ba/F3 HER2 mutant cells (CellTiter-Glo). Type of assay: cell-based. The note with it: Mus musculus, BaF3, 72 hours. The gist of the method: (§3)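 Ba/F3 cells carrying HER2 A775_G776insYVMA or G776delinsVC were seeded at 1,000 cells/well and dosed 24 h later at 0.01-10 μM (8 concentrations including 0). After 72 h, viability was read as cellular ATP by CellTiter-Glo luminescence, and IC50 values were calculated from the 8-point curves.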

Assay [3] has as its system Ba/F3 HER2 A775_G776insYVMA. The assay is described as above. Type of assay: cell-based. The conditions noted are these: Mus musculus, BaF3, 72 hours. The gist of the method:
as §3

The target of a further assay is HER2 A775_G776insYVMA (Homo sapiens (Human), UniProt P04626, INS775YVMA). As to the kind of experiment: HTRF inhibitory activity against HER2 mutant enzyme. It is filed as biochemical. The note with it: recombinant enzyme, 37° C. for 2 hours. The gist of the method: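 Recombinant HER2 A775_G776insYVMA preincubated with compound, then […] and biotinylated peptide ([…]) added; 2 h at 37 °C in Tris-HCl pH 7.5 buffer with MgCl2, DTT. HTRF detection (Eu anti-phosphotyrosine/streptavidin-XL665); IC50 from 7 concentrations.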
Sequence of HER2 A775_G776insYVMA (P04626 other isoform, or with tags, fused parts or gaps del 1-675/ins YVMA behind 775 limits assumed): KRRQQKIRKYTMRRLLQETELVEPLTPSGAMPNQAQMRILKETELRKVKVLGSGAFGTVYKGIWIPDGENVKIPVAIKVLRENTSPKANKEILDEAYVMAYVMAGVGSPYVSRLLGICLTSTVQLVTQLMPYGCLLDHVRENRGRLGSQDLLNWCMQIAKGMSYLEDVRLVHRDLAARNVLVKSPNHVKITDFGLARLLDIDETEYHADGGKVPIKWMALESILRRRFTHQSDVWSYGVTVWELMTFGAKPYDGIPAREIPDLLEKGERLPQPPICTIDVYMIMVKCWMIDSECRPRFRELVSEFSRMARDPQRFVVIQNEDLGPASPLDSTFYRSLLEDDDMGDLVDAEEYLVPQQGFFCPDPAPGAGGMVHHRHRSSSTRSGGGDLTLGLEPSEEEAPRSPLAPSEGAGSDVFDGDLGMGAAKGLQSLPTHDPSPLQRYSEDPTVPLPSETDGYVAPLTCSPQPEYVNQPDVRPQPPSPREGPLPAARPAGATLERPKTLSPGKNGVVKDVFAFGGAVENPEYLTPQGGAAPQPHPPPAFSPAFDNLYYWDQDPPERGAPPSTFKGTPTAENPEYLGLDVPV

The target of the next assay is EGFR A763_Y764insFHEA (Homo sapiens (Human), UniProt P00533, INS763FHEA). As to the kind of experiment: HTRF inhibitory activity against EGFR mutant enzyme (EGFR A763_Y764insFHEA). It is filed as biochemical. The note with it: recombinant enzyme, 37° C. for 2 hours. An outline of the steps: as §2
Sequence of EGFR A763_Y764insFHEA (P00533 other isoform, or with tags, fused parts or gaps del 1-694/ins FHEA behind 763 limits assumed): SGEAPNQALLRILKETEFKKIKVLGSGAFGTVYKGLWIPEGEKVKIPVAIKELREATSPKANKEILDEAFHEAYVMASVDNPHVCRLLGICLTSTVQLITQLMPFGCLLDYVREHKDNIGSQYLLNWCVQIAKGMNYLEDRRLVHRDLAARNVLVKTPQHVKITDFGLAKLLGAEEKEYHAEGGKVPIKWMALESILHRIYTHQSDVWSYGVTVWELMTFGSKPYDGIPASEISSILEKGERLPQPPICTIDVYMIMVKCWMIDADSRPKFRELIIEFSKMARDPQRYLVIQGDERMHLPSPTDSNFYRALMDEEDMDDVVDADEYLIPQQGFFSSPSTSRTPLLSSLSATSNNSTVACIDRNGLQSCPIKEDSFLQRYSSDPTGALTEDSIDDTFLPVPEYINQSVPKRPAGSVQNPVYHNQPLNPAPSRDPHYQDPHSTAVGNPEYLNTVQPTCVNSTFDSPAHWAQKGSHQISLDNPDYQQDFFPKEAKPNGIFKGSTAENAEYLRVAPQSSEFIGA

Sequence of EGFR del19 (P00533 other isoform, or with tags, fused parts or gaps del 1-668/del 746-750 limits assumed): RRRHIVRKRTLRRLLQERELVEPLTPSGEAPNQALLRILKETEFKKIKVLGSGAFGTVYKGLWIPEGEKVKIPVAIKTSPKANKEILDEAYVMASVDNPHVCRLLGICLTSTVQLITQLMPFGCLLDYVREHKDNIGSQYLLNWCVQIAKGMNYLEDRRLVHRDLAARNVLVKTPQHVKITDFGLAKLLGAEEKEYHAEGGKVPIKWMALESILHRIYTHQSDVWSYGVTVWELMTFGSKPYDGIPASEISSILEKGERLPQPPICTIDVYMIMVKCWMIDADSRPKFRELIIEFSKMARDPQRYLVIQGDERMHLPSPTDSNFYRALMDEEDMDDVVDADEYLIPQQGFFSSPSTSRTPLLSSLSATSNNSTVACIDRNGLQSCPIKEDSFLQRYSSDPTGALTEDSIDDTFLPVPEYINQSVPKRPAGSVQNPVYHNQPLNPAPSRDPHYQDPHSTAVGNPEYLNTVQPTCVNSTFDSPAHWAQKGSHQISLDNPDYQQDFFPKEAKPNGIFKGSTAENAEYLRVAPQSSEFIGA

As to `C=CC(=O)Nc1cc(Nc2ncc(Cl)c(Nc3cccc4c3N(S(C)(=O)=O)CC4)n2)c(OC)cc1N(C)CCN(C)C` [Example 55, N-(5-((5-chloro-4-((1-(methylsulfonyl)indolin-7-yl)amino)pyrimidin-2-yl)amino)-2-((2-(dimethylamino)ethyl)(methyl)amino)-4-methoxyphenyl)acrylamide], the IC50 in assay [1] was under 10 nM; in assay [2], under 10 nM; on EGFR del19 it was under 1 nM; in the assay on Ba/F3 HER2 G776delinsVC, under 10 nM; in assay [3], under 10 nM; at HER2 A775_G776insYVMA, under 1 nM. The IC50 at EGFR A763_Y764insFHEA is under 1 nM.
For the compound `C=CC(=O)Nc1cc(Nc2ncc(Cl)c(Nc3cccc4c3N(S(=O)(=O)CC)CC4)n2)c(OC)cc1N(C)CCN(C)C` [Example 56, N-(5-((5-chloro-4-((1-(ethylsulfonyl)indolin-7-yl)amino)pyrimidin-2-yl)amino)-2-((2-(dimethylamino)ethyl)(methyl)amino)-4-methoxyphenyl)acrylamide], the IC50 in assay [1] is under 10 nM; in assay [2], under 10 nM; on EGFR del19, under 1 nM; in the assay on Ba/F3 HER2 G776delinsVC it was under 10 nM; in assay [3] it was under 10 nM; on HER2 A775_G776insYVMA, under 1 nM. Besides, the IC50 on EGFR A763_Y764insFHEA was under 1 nM.
On to `C=CC(=O)Nc1cc(Nc2ncc(Cl)c(Nc3cccc4c3N(S(C)(=O)=O)CC4)n2)c(OC)cc1N(C)CCNC` [Example 57, N-(5-((5-chloro-4-((1-(methylsulfonyl)indolin-7-yl)amino)pyrimidin-2-yl)amino)-4-methoxy-2-(methyl(2-(methylamino)ethyl)amino)phenyl)acrylamide], for which the IC50 in assay [1] is 50 to 100 nM; in assay [2], 50 to 100 nM; on EGFR del19, under 1 nM; with Ba/F3 HER2 G776delinsVC, 50 to 100 nM; in assay [3] it was 50 to 100 nM; at HER2 A775_G776insYVMA, under 1 nM. Further, on EGFR A763_Y764insFHEA, the IC50 is under 1 nM.
In the case of `C=CC(=O)Nc1cc(Nc2ncc(Cl)c(Nc3cccc4c3N(S(C)(=O)=O)CC4)n2)c(OC)cc1N1CCC(N(C)C)CC1` [Example 58, N-(5-((5-chloro-4-((1-(methylsulfonyl)indolin-7-yl)amino)pyrimidin-2-yl)amino)-2-(4-(dimethylamino)piperidin-1-yl)-4-methoxyphenyl)acrylamide], the IC50 in assay [1] was 50 to 100 nM; in assay [2], 50 to 100 nM; at EGFR del19 it was under 1 nM; with Ba/F3 HER2 G776delinsVC, under 10 nM; in assay [3], 50 to 100 nM; on HER2 A775_G776insYVMA, 90 nM. For the same compound, the IC50 at EGFR A763_Y764insFHEA was 10 nM.
For `C=CC(=O)Nc1cc(Nc2ncc(Cl)c(Nc3cccc4c3N(S(C)(=O)=O)CC4)n2)c(OC)cc1N1CCC(N2CCN(C)CC2)CC1` [Example 59, N-(5-((5-chloro-4-((1-(methylsulfonyl)indolin-7-yl)amino)pyrimidin-2-yl)amino)-4-methoxy-2-(4-(4-methylpiperazin-1-yl)piperidin-1-yl)phenyl)acrylamide], the IC50 in assay [1] was 50 to 100 nM; in assay [2], 50 to 100 nM; at EGFR del19, under 1 nM; in the assay on Ba/F3 HER2 G776delinsVC, 50 to 100 nM; in assay [3], 50 to 100 nM; on HER2 A775_G776insYVMA it was 20 nM. Moreover, on EGFR A763_Y764insFHEA, the IC50 is under 1 nM.
Take `C=CC(=O)Nc1cc(Nc2ncc(Cl)c(Nc3ccc(C)c(C)c3N(C)C(C)=O)n2)c(OC)cc1N(C)CCN(C)C` [Example 83, N-(5-((5-chloro-4-((3,4-dimethyl-2-(N-methylacetamido)phenyl)amino)pyrimidin-2-yl)amino)-2-((2-(dimethylamino)ethyl)(methyl)amino)-4-methoxyphenyl)acrylamide]: the 50% inhibitory concentration (IC50) is 30 to 50 nM in assay [1]; 30 to 50 nM in assay [2]; 3 nM at EGFR del19; under 10 nM in the assay on Ba/F3 HER2 G776delinsVC; over 100 nM in assay [3]; 374 nM at HER2 A775_G776insYVMA. In addition, on EGFR A763_Y764insFHEA, the IC50 was 19 nM.
In the case of `C=CC(=O)Nc1cc(Nc2ncc(Cl)c(Nc3ccc(C)c(C)c3NC(C)=O)n2)c(OC)cc1N(C)CCN(C)C` [Example 84, N-(5-((4-((2-acetamido-3,4-dimethylphenyl)amino)-5-chloropyrimidin-2-yl)amino)-2-((2-(dimethylamino)ethyl)(methyl)amino)-4-methoxyphenyl)acrylamide], the IC50 was 30 to 50 nM in assay [1]; 30 to 50 nM in assay [2]; 1 nM at EGFR del19; under 10 nM in the assay with Ba/F3 HER2 G776delinsVC; over 100 nM in assay [3]; 52 nM on HER2 A775_G776insYVMA. For the same compound, the IC50 on EGFR A763_Y764insFHEA stood at 3 nM.
Regarding `C=CC(=O)Nc1cc(Nc2ncc(Cl)c(Nc3cccc(C)c3N(C)C(C)=O)n2)c(OC)cc1N(C)CCN(C)C` [Example 85, N-(5-((5-chloro-4-((3-methyl-2-(N-methylacetamido)phenyl)amino)pyrimidin-2-yl)amino)-2-((2-(dimethylamino)ethyl)(methyl)amino)-4-methoxyphenyl)acrylamide], the IC50 in assay [1] was 30 to 50 nM; in assay [2], 30 to 50 nM; at EGFR del19 it was 18 nM; in the assay on Ba/F3 HER2 G776delinsVC, 10 to 30 nM; in assay [3], over 100 nM; at HER2 A775_G776insYVMA, 871 nM. Moreover, on EGFR A763_Y764insFHEA, the IC50 came out at 43 nM.
On to `C=CC(=O)Nc1cc(Nc2ncc(Cl)c(Nc3cccc(C)c3NC(C)=O)n2)c(OC)cc1N(C)CCN(C)C` [Example 86, N-(5-((4-((2-acetamido-3-methylphenyl)amino)-5-chloropyrimidin-2-yl)amino)-2-((2-(dimethylamino)ethyl)(methyl)amino)-4-methoxyphenyl)acrylamide], for which the IC50 is 30 to 50 nM in assay [1]; 30 to 50 nM in assay [2]; 2 nM at EGFR del19; under 10 nM in the assay with Ba/F3 HER2 G776delinsVC; over 100 nM in assay [3]; 157 nM on HER2 A775_G776insYVMA. In addition, the IC50 on EGFR A763_Y764insFHEA is 20 nM.
Take `C=CC(=O)Nc1cc(Nc2ncc(Cl)c(Nc3ccc(C)cc3N(C)C(C)=O)n2)c(OC)cc1N(C)CCN(C)C` [Example 87, N-(5-((5-chloro-4-((4-methyl-2-(N-methylacetamido)phenyl)amino)pyrimidin-2-yl)amino)-2-((2-(dimethylamino)ethyl)(methyl)amino)-4-methoxyphenyl)acrylamide]: the IC50 in assay [1] is 30 to 50 nM; in assay [2], 30 to 50 nM; on EGFR del19, 4 nM; in the assay with Ba/F3 HER2 G776delinsVC it was under 10 nM; in assay [3] it was over 100 nM; at HER2 A775_G776insYVMA, 107 nM. In addition, the IC50 at EGFR A763_Y764insFHEA came to 24 nM.
On to `C=CC(=O)Nc1cc(Nc2ncc(Cl)c(Nc3ccc(C)cc3NC(C)=O)n2)c(OC)cc1N(C)CCN(C)C` [Example 88, N-(5-((4-((2-acetamido-4-methylphenyl)amino)-5-chloropyrimidin-2-yl)amino)-2-((2-(dimethylamino)ethyl)(methyl)amino)-4-methoxyphenyl)acrylamide], for which the IC50 in assay [1] was 10 to 30 nM; in assay [2], 10 to 30 nM; at EGFR del19 it was under 1 nM; in the assay with Ba/F3 HER2 G776delinsVC, under 10 nM; in assay [3], 30 to 50 nM; on HER2 A775_G776insYVMA, 14 nM. For the same compound, the IC50 at EGFR A763_Y764insFHEA turned out to be 2 nM.
